system: KGN; experiment: cells; assay type: functional, cell-based, Homo sapiens; settings: Homo sapiens, KGN;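 further: growth inhibition of KGN cells, read out with a cell viability assay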
Description: SANGER: Inhibition of human KGN cell growth in a cell viability assay.

Structure (SMILES) | IC50 [µM]
COc1ccc(-c2cc3nccn3c(Nc3ncccc3C(N)=O)n2)cc1OC | 1.54

system: no-11; experiment: cells; assay type: functional, cell-based, Homo sapiens; settings: Homo sapiens;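 further: growth inhibition of human NO-11 cells, read out with a cell viability assay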
Description: SANGER: Inhibition of human no-11 cell growth in a cell viability assay.

Structure (SMILES) | IC50 [µM]
COc1ccc(-c2cc3nccn3c(Nc3ncccc3C(N)=O)n2)cc1OC | > 8

system: EW-16; experiment: cells; assay type: functional, cell-based, Homo sapiens; settings: Homo sapiens, EW-16;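 further: growth inhibition of human EW-16 cells, read out as cell viability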
Description: SANGER: Inhibition of human EW-16 cell growth in a cell viability assay.

Structure (SMILES) | IC50 [µM]
COc1ccc(-c2cc3nccn3c(Nc3ncccc3C(N)=O)n2)cc1OC | 1.68

system: GI-ME-N; experiment: cells; assay type: functional, cell-based, Homo sapiens; settings: Homo sapiens, GI-ME-N;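 further: growth inhibition of human GI-ME-N cells, read out with a cell viability assay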
Description: SANGER: Inhibition of human GI-ME-N cell growth in a cell viability assay.

Structure (SMILES) | IC50 [µM]
COc1ccc(-c2cc3nccn3c(Nc3ncccc3C(N)=O)n2)cc1OC | > 8

system: GT3TKB; experiment: cells; assay type: functional, cell-based, Homo sapiens; settings: Homo sapiens, GT3TKB;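 further: growth inhibition of the cell line, read out with a cell viability assay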
Description: SANGER: Inhibition of human GT3TKB cell growth in a cell viability assay.

Structure (SMILES) | IC50 [µM]
COc1ccc(-c2cc3nccn3c(Nc3ncccc3C(N)=O)n2)cc1OC | > 8

system: KARPAS-45; experiment: cells; assay type: functional, cell-based, Homo sapiens; settings: Homo sapiens, KARPAS-45;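 further: inhibition of cell line growth, read out through a viability assay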
Description: SANGER: Inhibition of human KARPAS-45 cell growth in a cell viability assay.

Structure (SMILES) | IC50 [µM]
COc1ccc(-c2cc3nccn3c(Nc3ncccc3C(N)=O)n2)cc1OC | 1.9

system: BE-13; experiment: cells; assay type: functional, cell-based, Homo sapiens; settings: Homo sapiens, BE-13;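 further: growth inhibition of human BE-13 cells, measured with a cell viability assay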
Description: SANGER: Inhibition of human BE-13 cell growth in a cell viability assay.

Structure (SMILES) | IC50 [µM]
COc1ccc(-c2cc3nccn3c(Nc3ncccc3C(N)=O)n2)cc1OC | 2.7

system: NCI-H747; experiment: cells; assay type: functional, cell-based, Homo sapiens; settings: Homo sapiens, NCI-H747;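 further: growth inhibition of human NCI-H747 cells, read out by a cell viability assay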
Description: SANGER: Inhibition of human NCI-H747 cell growth in a cell viability assay.

Structure (SMILES) | IC50 [µM]
COc1ccc(-c2cc3nccn3c(Nc3ncccc3C(N)=O)n2)cc1OC | > 8

system: KLE; experiment: cells; assay type: functional, cell-based; settings: Homo sapiens;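 further: growth inhibition of human KLE cells, read out with a cell viability assay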
Description: SANGER: Inhibition of human KLE cell growth in a cell viability assay.

Structure (SMILES) | IC50 [µM]
COc1ccc(-c2cc3nccn3c(Nc3ncccc3C(N)=O)n2)cc1OC | > 8

system: Lu-65; experiment: cells; assay type: functional, cell-based, Homo sapiens; settings: Homo sapiens, Lu-65;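 further: growth inhibition of Lu-65 cancer cells, read out by a cell viability assay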
Description: SANGER: Inhibition of human LU-65 cell growth in a cell viability assay.

Structure (SMILES) | IC50 [µM]
COc1ccc(-c2cc3nccn3c(Nc3ncccc3C(N)=O)n2)cc1OC | 2.22

system: BB49-HNC; experiment: cells; assay type: functional, cell-based, Homo sapiens; settings: Homo sapiens, BB49-HNC;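 further: cell viability assay read-out, reported as inhibition of BB49-HNC cell growth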
Description: SANGER: Inhibition of human BB49-HNC cell growth in a cell viability assay.

Structure (SMILES) | IC50 [µM]
COc1ccc(-c2cc3nccn3c(Nc3ncccc3C(N)=O)n2)cc1OC | 3.3

system: NCI-H1395; experiment: cells; assay type: functional, cell-based, Homo sapiens; settings: Homo sapiens, NCI-H1395;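 further: cell viability assay read-out quantifying reduced proliferation of human NCI-H1395 cells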
Description: SANGER: Inhibition of human NCI-H1395 cell growth in a cell viability assay.

Structure (SMILES) | IC50 [µM]
COc1ccc(-c2cc3nccn3c(Nc3ncccc3C(N)=O)n2)cc1OC | > 8

system: MMAC-SF; experiment: cells; assay type: functional, cell-based; settings: Homo sapiens;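 further: growth inhibition of human MMAC-SF cells, read out with a cell viability assay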
Description: SANGER: Inhibition of human MMAC-SF cell growth in a cell viability assay.

Structure (SMILES) | IC50 [µM]
COc1ccc(-c2cc3nccn3c(Nc3ncccc3C(N)=O)n2)cc1OC | > 8

system: OCUB-M; experiment: cells; assay type: functional, cell-based; settings: Homo sapiens;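 further: growth inhibition of the cancer cell line, read out through a cell viability assay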
Description: SANGER: Inhibition of human OCUB-M cell growth in a cell viability assay.

Structure (SMILES) | IC50 [µM]
COc1ccc(-c2cc3nccn3c(Nc3ncccc3C(N)=O)n2)cc1OC | 4.11

system: OVCAR-4; experiment: cells; assay type: functional, cell-based, Homo sapiens; settings: Homo sapiens, OVCAR-4;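 further: growth inhibition of human OVCAR-4 cells, measured with a cell viability assay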
Description: SANGER: Inhibition of human OVCAR-4 cell growth in a cell viability assay.

Structure (SMILES) | IC50 [µM]
COc1ccc(-c2cc3nccn3c(Nc3ncccc3C(N)=O)n2)cc1OC | > 8

system: MC116; experiment: cells; assay type: functional, cell-based, Homo sapiens; settings: Homo sapiens, MC116;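 further: growth inhibition of MC116 cells, read out with a cell viability assay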
Description: SANGER: Inhibition of human MC116 cell growth in a cell viability assay.

Structure (SMILES) | IC50 [µM]
COc1ccc(-c2cc3nccn3c(Nc3ncccc3C(N)=O)n2)cc1OC | 2.51

system: MZ2-MEL; experiment: cells; assay type: functional, cell-based, Homo sapiens; settings: Homo sapiens, MZ2-MEL;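 further: growth inhibition of MZ2-MEL cells read out with a cell viability assay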
Description: SANGER: Inhibition of human MZ2-MEL cell growth in a cell viability assay.

Structure (SMILES) | IC50 [µM]
COc1ccc(-c2cc3nccn3c(Nc3ncccc3C(N)=O)n2)cc1OC | 3.48

system: NCI-H2126; experiment: cells; assay type: functional, cell-based, Homo sapiens; settings: Homo sapiens, NCI-H2126;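 further: growth inhibition of the cancer cell line, determined with a cell viability readout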
Description: SANGER: Inhibition of human NCI-H2126 cell growth in a cell viability assay.

Structure (SMILES) | IC50 [µM]
COc1ccc(-c2cc3nccn3c(Nc3ncccc3C(N)=O)n2)cc1OC | > 8

system: TE-10; experiment: cells; assay type: functional, cell-based, Homo sapiens; settings: Homo sapiens, TE-10;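 further: growth inhibition of TE-10 cells, measured by a cell viability assay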
Description: SANGER: Inhibition of human TE-10 cell growth in a cell viability assay.

Structure (SMILES) | IC50 [µM]
COc1ccc(-c2cc3nccn3c(Nc3ncccc3C(N)=O)n2)cc1OC | 1.76

system: KS-1; experiment: cells; assay type: functional, cell-based; settings: Homo sapiens;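 further: growth inhibition of KS-1 cells, read out with a cell viability assay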
Description: SANGER: Inhibition of human KS-1 cell growth in a cell viability assay.

Structure (SMILES) | IC50 [µM]
COc1ccc(-c2cc3nccn3c(Nc3ncccc3C(N)=O)n2)cc1OC | 2.78

system: NB5; experiment: cells; assay type: functional, cell-based, Homo sapiens; settings: Homo sapiens, NB5;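 further: growth inhibition of NB5 cells, read out as cell viability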
Description: SANGER: Inhibition of human NB5 cell growth in a cell viability assay.

Structure (SMILES) | IC50 [µM]
COc1ccc(-c2cc3nccn3c(Nc3ncccc3C(N)=O)n2)cc1OC | > 8

system: GB-1; experiment: cells; assay type: functional, cell-based, Homo sapiens; settings: Homo sapiens, GB-1;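 further: growth of GB-1 cells judged by a viability assay, IC50 marks the concentration inhibiting growth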
Description: SANGER: Inhibition of human GB-1 cell growth in a cell viability assay.

Structure (SMILES) | IC50 [µM]
COc1ccc(-c2cc3nccn3c(Nc3ncccc3C(N)=O)n2)cc1OC | 2.83

system: SNU-C2B; experiment: cells; assay type: functional, cell-based; settings: Homo sapiens;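 further: cell viability readout used to measure compound-driven suppression of SNU-C2B cell proliferation, IC50 marking half-maximal growth inhibition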
Description: SANGER: Inhibition of human SNU-C2B cell growth in a cell viability assay.

Structure (SMILES) | IC50 [µM]
COc1ccc(-c2cc3nccn3c(Nc3ncccc3C(N)=O)n2)cc1OC | 1.84

system: NKM-1; experiment: cells; assay type: functional, cell-based, Homo sapiens; settings: Homo sapiens, NKM-1;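 further: growth inhibition of NKM-1 cells, read out with a cell viability assay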
Description: SANGER: Inhibition of human NKM-1 cell growth in a cell viability assay.

Structure (SMILES) | IC50 [µM]
COc1ccc(-c2cc3nccn3c(Nc3ncccc3C(N)=O)n2)cc1OC | 1.06

system: SF-126; experiment: cells; assay type: functional, cell-based, Homo sapiens; settings: Homo sapiens, SF-126;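 further: growth inhibition of human SF126 cells, read out with a cell viability assay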
Description: SANGER: Inhibition of human SF126 cell growth in a cell viability assay.

Structure (SMILES) | IC50 [µM]
COc1ccc(-c2cc3nccn3c(Nc3ncccc3C(N)=O)n2)cc1OC | > 8

system: ALL-PO; experiment: cells; assay type: functional, cell-based, Homo sapiens; settings: Homo sapiens, ALL-PO;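 further: growth inhibition of ALL-PO cells, read out by a cell viability assay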
Description: SANGER: Inhibition of human ALL-PO cell growth in a cell viability assay.

Structure (SMILES) | IC50 [µM]
COc1ccc(-c2cc3nccn3c(Nc3ncccc3C(N)=O)n2)cc1OC | 0.557

system: MPP-89; experiment: cells; assay type: functional, cell-based, Homo sapiens; settings: Homo sapiens, MPP-89;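 further: growth inhibition of human MPP-89 cells, read out with a cell viability assay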
Description: SANGER: Inhibition of human MPP-89 cell growth in a cell viability assay.

Structure (SMILES) | IC50 [µM]
COc1ccc(-c2cc3nccn3c(Nc3ncccc3C(N)=O)n2)cc1OC | 1.67

system: SH-4; experiment: cells; assay type: functional, cell-based; settings: Homo sapiens;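 further: growth inhibition of SH-4 cells, read out with a cell viability assay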
Description: SANGER: Inhibition of human SH-4 cell growth in a cell viability assay.

Structure (SMILES) | IC50 [µM]
COc1ccc(-c2cc3nccn3c(Nc3ncccc3C(N)=O)n2)cc1OC | > 8

system: SK-MEL-1; experiment: cells; assay type: functional, cell-based, Homo sapiens; settings: Homo sapiens, SK-MEL-1;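 further: growth inhibition of human SK-MEL-1 cells, read out by a cell viability assay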
Description: SANGER: Inhibition of human SK-MEL-1 cell growth in a cell viability assay.

Structure (SMILES) | IC50 [µM]
COc1ccc(-c2cc3nccn3c(Nc3ncccc3C(N)=O)n2)cc1OC | > 8

system: COR-L88; experiment: cells; assay type: functional, cell-based, Homo sapiens; settings: Homo sapiens, COR-L88;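 further: growth inhibition of COR-L88 cells, read out with a cell viability assay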
Description: SANGER: Inhibition of human COR-L88 cell growth in a cell viability assay.

Structure (SMILES) | IC50 [µM]
COc1ccc(-c2cc3nccn3c(Nc3ncccc3C(N)=O)n2)cc1OC | > 8

system: DMS-114; experiment: cells; assay type: functional, cell-based, Homo sapiens; settings: Homo sapiens, DMS-114

Structure (SMILES) | IC50 [µM]
COc1ccc(-c2cc3nccn3c(Nc3ncccc3C(N)=O)n2)cc1OC | > 8

system: LB771-HNC; experiment: cells; assay type: functional, cell-based; settings: Homo sapiens;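 further: growth inhibition of LB771-HNC human cells, read out with a cell viability assay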
Description: SANGER: Inhibition of human LB771-HNC cell growth in a cell viability assay.

Structure (SMILES) | IC50 [µM]
COc1ccc(-c2cc3nccn3c(Nc3ncccc3C(N)=O)n2)cc1OC | > 8

system: MOLT-16; experiment: cells; assay type: functional, cell-based, Homo sapiens; settings: Homo sapiens, MOLT-16;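 further: growth inhibition of human MOLT-16 cells, read out with a cell viability assay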
Description: SANGER: Inhibition of human MOLT-16 cell growth in a cell viability assay.

Structure (SMILES) | IC50 [µM]
COc1ccc(-c2cc3nccn3c(Nc3ncccc3C(N)=O)n2)cc1OC | 0.571

system: RXF 393; experiment: cells; assay type: functional, cell-based, Homo sapiens; settings: Homo sapiens, RXF 393;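 further: growth inhibition of human RXF 393 cells, read out with a cell viability assay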
Description: SANGER: Inhibition of human RXF393 cell growth in a cell viability assay.

Structure (SMILES) | IC50 [µM]
COc1ccc(-c2cc3nccn3c(Nc3ncccc3C(N)=O)n2)cc1OC | 6.81

system: COLO-684; experiment: cells; assay type: functional, cell-based, Homo sapiens; settings: Homo sapiens, COLO-684
Description: SANGER: Inhibition of human COLO-684 cell growth in a cell viability assay.

Structure (SMILES) | IC50 [µM]
COc1ccc(-c2cc3nccn3c(Nc3ncccc3C(N)=O)n2)cc1OC | 5.84

system: KE-37; experiment: cells; assay type: functional, cell-based, Homo sapiens; settings: Homo sapiens, KE-37;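 further: growth inhibition of KE-37 cells, read out with a cell viability assay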
Description: SANGER: Inhibition of human KE-37 cell growth in a cell viability assay.

Structure (SMILES) | IC50 [µM]
COc1ccc(-c2cc3nccn3c(Nc3ncccc3C(N)=O)n2)cc1OC | 0.835

system: HL-60; experiment: cells; assay type: functional, cell-based, Homo sapiens; settings: Homo sapiens, HL-60;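 further: growth inhibition of human HL-60 cells, read out with a cell viability assay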
Description: SANGER: Inhibition of human HL-60 cell growth in a cell viability assay.

Structure (SMILES) | IC50 [µM]
COc1ccc(-c2cc3nccn3c(Nc3ncccc3C(N)=O)n2)cc1OC | > 8

system: GOTO; experiment: cells; assay type: functional, cell-based, Homo sapiens; settings: Homo sapiens, GOTO;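 further: growth inhibition of GOTO cells, read out by a cell viability assay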
Description: SANGER: Inhibition of human GOTO cell growth in a cell viability assay.

Structure (SMILES) | IC50 [µM]
COc1ccc(-c2cc3nccn3c(Nc3ncccc3C(N)=O)n2)cc1OC | 3.42

system: GI-1; experiment: cells; assay type: functional, cell-based, Homo sapiens; settings: Homo sapiens, GI-1;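 further: growth inhibition of human GI-1 cells, measured with a cell viability readout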
Description: SANGER: Inhibition of human GI-1 cell growth in a cell viability assay.

Structure (SMILES) | IC50 [µM]
COc1ccc(-c2cc3nccn3c(Nc3ncccc3C(N)=O)n2)cc1OC | 5.41

system: NCI-H1304; experiment: cells; assay type: functional, cell-based, Homo sapiens; settings: Homo sapiens, NCI-H1304;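 further: growth inhibition of the cancer cell line, measured in a cell viability assay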
Description: SANGER: Inhibition of human NCI-H1304 cell growth in a cell viability assay.

Structure (SMILES) | IC50 [µM]
COc1ccc(-c2cc3nccn3c(Nc3ncccc3C(N)=O)n2)cc1OC | > 8

system: EW-11; experiment: cells; assay type: functional, cell-based, Homo sapiens; settings: Homo sapiens, EW-11;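 further: growth inhibition of human EW-11 cells, measured with a cell viability assay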
Description: SANGER: Inhibition of human EW-11 cell growth in a cell viability assay.

Structure (SMILES) | IC50 [µM]
COc1ccc(-c2cc3nccn3c(Nc3ncccc3C(N)=O)n2)cc1OC | > 8

system: GR-ST; experiment: cells; assay type: functional, cell-based, Homo sapiens; settings: Homo sapiens, GR-ST
Description: SANGER: Inhibition of human GR-ST cell growth in a cell viability assay.

Structure (SMILES) | IC50 [µM]
COc1ccc(-c2cc3nccn3c(Nc3ncccc3C(N)=O)n2)cc1OC | 3.7

system: VA-ES-BJ; experiment: cells; assay type: functional, cell-based, Homo sapiens; settings: Homo sapiens, VA-ES-BJ;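 further: growth inhibition of the VA-ES-BJ cell line, read out by a cell viability assay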
Description: SANGER: Inhibition of human VA-ES-BJ cell growth in a cell viability assay.

Structure (SMILES) | IC50 [µM]
COc1ccc(-c2cc3nccn3c(Nc3ncccc3C(N)=O)n2)cc1OC | > 8

system: RCC10RGB; experiment: cells; assay type: functional, cell-based, Homo sapiens; settings: Homo sapiens, RCC10RGB;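 further: growth inhibition of human RCC10RGB cells, read out by a cell viability assay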
Description: SANGER: Inhibition of human RCC10RGB cell growth in a cell viability assay.

Structure (SMILES) | IC50 [µM]
COc1ccc(-c2cc3nccn3c(Nc3ncccc3C(N)=O)n2)cc1OC | > 8

system: LAN-6; experiment: cells; assay type: functional, cell-based, Homo sapiens; settings: Homo sapiens, LAN-6;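 further: growth inhibition of LAN-6 cells, determined with a cell viability assay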
Description: SANGER: Inhibition of human LAN-6 cell growth in a cell viability assay.

Structure (SMILES) | IC50 [µM]
COc1ccc(-c2cc3nccn3c(Nc3ncccc3C(N)=O)n2)cc1OC | > 8

system: LS-1034; experiment: cells; assay type: functional, cell-based, Homo sapiens; settings: Homo sapiens, LS-1034
Description: SANGER: Inhibition of human LS-1034 cell growth in a cell viability assay.

Structure (SMILES) | IC50 [µM]
COc1ccc(-c2cc3nccn3c(Nc3ncccc3C(N)=O)n2)cc1OC | > 8

system: NB6; experiment: cells; assay type: functional, cell-based, Homo sapiens; settings: Homo sapiens, NB6;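 further: growth inhibition of NB6 cells, read out by a cell viability assay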
Description: SANGER: Inhibition of human NB6 cell growth in a cell viability assay.

Structure (SMILES) | IC50 [µM]
COc1ccc(-c2cc3nccn3c(Nc3ncccc3C(N)=O)n2)cc1OC | > 8

system: C2BBe1; experiment: cells; assay type: functional, cell-based, Homo sapiens; settings: Homo sapiens, C2BBe1;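 further: growth inhibition of C2BBe1 cells, read out through a viability assay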
Description: SANGER: Inhibition of human C2BBe1 cell growth in a cell viability assay.

Structure (SMILES) | IC50 [µM]
COc1ccc(-c2cc3nccn3c(Nc3ncccc3C(N)=O)n2)cc1OC | > 8

system: DJM-1; experiment: cells; assay type: functional, cell-based, Homo sapiens; settings: Homo sapiens, DJM-1;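 further: growth inhibition of human DJM-1 cells, read out by a cell viability assay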
Description: SANGER: Inhibition of human DJM-1 cell growth in a cell viability assay.

Structure (SMILES) | IC50 [µM]
COc1ccc(-c2cc3nccn3c(Nc3ncccc3C(N)=O)n2)cc1OC | > 8

system: HOP-62; experiment: cells; assay type: functional, cell-based, Homo sapiens; settings: Homo sapiens, HOP-62;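 further: cell growth inhibition determined with a viability assay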
Description: SANGER: Inhibition of human HOP-62 cell growth in a cell viability assay.

Structure (SMILES) | IC50 [µM]
COc1ccc(-c2cc3nccn3c(Nc3ncccc3C(N)=O)n2)cc1OC | 1.75

system: TGBC24TKB; experiment: cells; assay type: functional, cell-based; settings: Homo sapiens;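 further: growth inhibition of human TGBC24TKB cells, read out with a cell viability assay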
Description: SANGER: Inhibition of human TGBC24TKB cell growth in a cell viability assay.

Structure (SMILES) | IC50 [µM]
COc1ccc(-c2cc3nccn3c(Nc3ncccc3C(N)=O)n2)cc1OC | > 8

Reference: ChEMBL document CHEMBL1201861, “Genomics of Drug Sensitity in Cancer screening data, Wellcome Trust Sanger Institute”
